Laboratory results published in patent US11179410B2, “Pharmaceutical composition for improving, preventing or treating muscle related disease comprising ginsenoside Rh2” (KOREA ADVANCED INSTITUTE OF SCIENCE AND TECHNOLOGY, priority 2018, dated 2021).

Tests used:
Assay type in all cases: cell-based, mouse
[1] = test system: pSmad2/Smad2; assay: Western blotting of pSmad2 in MSTN-induced atrophic myotube cells
Protocol: (§1) MSTN is known to induce atrophy by increasing UPP-mediated protein degradation through activation of the ActRIIB-Smad2 signaling pathway. Phosphorylated Smad2 (pSmad2) activates this UPP-mediated proteolytic signaling. Activated UPP is involved in the degradation of MyoD and is regulated by the E3 ligase, MAFbx. To investigate the mechanism of Rh2 in this signal transduction, changes of the amount of Rh2-induced phosphorylation of Smad2 and the amount of MAFbx and MyoD expression were determined. For this purpose, myotube cells were treated with 0.4 μg/ml MSTN alone, or with combination of 0.4 μg/ml MSTN and 1 μg/ml or 10 μg/ml Rh2. Western blotting was performed using pSmad2 antibody, MAFbx antibody, and MyoD antibody respectively.
(§2) The bands of Western blot and the relative fold change values of pSmad2/Smad2, MAFbx/GAPDH and MyoD/GAPDH in each treatment conditions were shown in FIG. 4.

[2] = test system: MSTN-induced atrophic myotube cells (C2C12); assay: Myotube width in MSTN-induced atrophic myotubes treated with Rh2
Protocol: (§3) C2C12 myotube cells were fixed with 4% (w/v) paraformaldehyde (Biosesang) for 15 minutes and then treated with 0.2% (v/v) Triton X-100, and blocked with 5% (w/v) BSA for 6 h. The cells were then stained with Myosin Heavy Chain (MHC) antibody (Santa Cruz, sc-20641, 1: 1000) for 12 h at 4° C. and then incubated with Alexa Fluor 488 conjugated secondary antibody at room temperature for 4 h. Images were acquired via HCS equipment (Molecular Devices) and quantified using ImageJ software. The width of myotube cells was quantified by measuring a total of more than 100 myotube cell widths in randomly selected five regions. The width per myotube was determined as the average of three independent measurements.
To investigate the effect of Rh2 on MSTN-induced atrophy, myotubes were treated with 0.4 ug/ml MSTN alone for 24 hours or treated with combination of 0.4 ug/ml MSTN and 1 ug/ml or 10 ug/ml Rh2 (Sigma, 73658) for 24 hours. In order to measure the change of the myotube width, the myotube cells were stained with MHC antibody as in the above Experimental Example 1, and cell images were obtained using HCS, and the width of myotube was quantified using ImageJ.

[3] = test system: MAFbx; assay: Western blotting of MAFbx in MSTN-induced atrophic myotube cells
Protocol: as §1, §2

[4] = test system: MyoD; assay: Western blotting of MyoD in MSTN-induced atrophic myotube cells
Protocol: as §1, §2

[5] = test system: C2C12 myotube cells; assay: Induction of muscular atrophy cell model: myotube width after MSTN treatment; conditions: 24 hours, C2C12 myotubes
Protocol: The model of muscular atrophy was constructed by differentiating mouse myoblast cell lines (C2C12 ATCC CRL-1772) into myotube cells followed by treating with MSTN.
Specifically, the cell lines were cultured in DMEM (Gibco) supplemented with 10% (v/v) Fetal Bovine Serum (FBS), 100 U/ml penicillin and 100 U/ml streptomycin (Sigma) at 37° C. in 5% CO2. For differentiating the cell lines into myotube cells, the cells were grown to 80-90% confluence and then cultured in DMEM supplemented with 2% (v/v) horse serum (Horse Serum, HS, Gibco). To verify the differentiation into myotube cells, the merge of multiple myoblasts to one long myotube cells were observed by the microscopic images.
In order to induce an atrophy model, differentiated myotube cells were cultured in serum-free DMEM medium for 3 hours, and then MSTN was treated with 0.4 μg/ml, […], 0.8 μg/ml and 1.2 μg respectively for 24 hours. […]
as §3, with “The cells were then stained with Myosin Heavy Chain (MHC) antibody (Santa Cruz, sc-20641, 1: 1000) for 12 h at 4° C. and then incubated with Alexa Fluor 488 conjugated secondary antibody at room temperature for 4 h.” left out

Compound: CC(C)=CCC[C@](C)(O)[C@H]1CC[C@]2(C)[C@@H]1[C@H](O)C[C@@H]1[C@@]3(C)CC[C@H](O[C@@H]4O[C@H](CO)[C@@H](O)[C@H](O)[C@H]4O)C(C)(C)[C@@H]3CC[C@]12C [Rh2, ginsenoside Rh2]
- amount of pSmad2 (pSmad2/Smad2) relative to normal conditions ([1]; 0.4 μg/ml MSTN + 10 ug/ml Rh2): kept at the same level as normal conditions
- width of myotube as % of that of normal cells ([2]; 0.4 ug/ml MSTN + 1 ug/ml Rh2, 24 hours): about 70%
- width of myotube as % of that of normal cells ([2]; 0.4 ug/ml MSTN + 10 ug/ml Rh2, 24 hours): above 100%
- amount of MAFbx (MAFbx/GAPDH) relative to normal conditions ([3]; 0.4 μg/ml MSTN + 10 ug/ml Rh2): kept at the same level as normal conditions
- amount of MyoD (MyoD/GAPDH) relative to normal conditions ([4]; 0.4 μg/ml MSTN + 10 ug/ml Rh2): kept at the same level as normal conditions

Compound: Myostatin [MSTN]
- amount of pSmad2 (pSmad2/Smad2), increase compared with normal condition ([1]; 0.4 μg/ml MSTN alone): about 50%
- reduction of width of myotube compared to normal cells ([2]; 0.4 ug/ml MSTN alone, 24 hours): about 50%
- amount of MAFbx (MAFbx/GAPDH), increase compared with normal condition ([3]; 0.4 μg/ml MSTN alone): about 50%
- amount of MyoD (MyoD/GAPDH), % of the normal condition ([4]; 0.4 μg/ml MSTN alone): about 30%
- decrease of width of myotube compared to the normal ([5]; 0.4 ug/ml MSTN, control width = 1.0): about 45%
- decrease of width of myotube compared to the normal ([5]; as the concentration of MSTN increased (up to 1.2 μg)): about 60%
